Test results from publication PMC10515640, “Structure-Based Optimization of Covalent, Small-Molecule Stabilizers of the 14-3-3σ/ERα Protein–Protein Interaction from Nonselective Fragments” (Journal of the American Chemical Society, 2023).
Where two headings read alike, the source gives them in different places.

Legend:
14-3-3σ/ERα [1] = target: T1, 14-3-3σ/ERα (Homo sapiens, UniProt P03372+P31947); test: Fluorescence anisotropy compound titration, FAM-labeled ERα peptide; type: binding; conditions: for EC50: 10 nM ERα-FAM labeled peptide, 1 µM 14-3-3σ, overnight incubation (24 h)
T1 construct: The 14-3-3 σ isoform (full-length for mass spectrometry and fluorescence anisotropy assays, ΔC for crystallography); made in house; host or cells: E. coli Rosetta 2(DE3)pLysS, pPROEX HTb vector
How it was run: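 Fluorescence anisotropy compound titration measuring stabilization of the 14-3-3σ/ERα interaction: compounds were titrated in a 2-fold dilution series (starting at 500 or 1000 µM) into a mix of 10 nM fluorescein-labeled ERα peptide and 1 µM 14-3-3σ (about EC25 of the complex) in HEPES buffer with 1% DMSO, read after overnight incubation at room temperature; EC50 from 4PL fitting.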

14-3-3σ/ERα [2] = target: T1, 14-3-3σ/ERα; test: as above; conditions: labeling in MS assay, peptide binding in FA assay
14-3-3σ/ERα [3] = target: T1, 14-3-3σ/ERα; test: Mass spectrometry dose response, compound binding to 14-3-3σ in the presence of ERα phosphopeptide; conditions: 100 nM compound, 100 nM 14-3-3σ, ERα-peptide 2 µM
How it was run: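 Covalent labeling of Cys38 on 14-3-3σ was tracked by LC-MS on a Waters Acquity UPLC/Xevo G2-XS Q-Tof, with samples desalted on a Protein BEH-C4 column. Full-length wild type 14-3-3σ (100 nM) plus ERα phosphopeptide was mixed with compound in 10 mM TRIS, pH 8.0, at 50 μl per well. Percent bound was measured at several time points.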

14-3-3σ = target: T2, 14-3-3σ (Homo sapiens, UniProt P31947); test: Mass spectrometry dose response, compound binding to 14-3-3σ in the absence of peptide (apo); conditions: 100 nM compound, 100 nM 14-3-3σ
T2 construct: The 14-3-3 σ isoform (full-length for mass spectrometry and fluorescence anisotropy assays, ΔC for crystallography); made in house; host or cells: E. coli Rosetta 2(DE3)pLysS, pPROEX HTb vector
T2 sequence (P31947 1-248): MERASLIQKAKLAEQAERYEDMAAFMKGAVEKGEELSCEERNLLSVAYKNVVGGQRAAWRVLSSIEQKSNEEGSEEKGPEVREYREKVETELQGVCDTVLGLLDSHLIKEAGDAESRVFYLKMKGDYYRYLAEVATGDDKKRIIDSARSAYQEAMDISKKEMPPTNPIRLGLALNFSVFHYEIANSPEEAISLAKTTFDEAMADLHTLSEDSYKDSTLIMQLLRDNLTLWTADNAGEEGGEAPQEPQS
How it was run: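 Covalent binding of compounds to Cys38 of full-length wild type human 14-3-3σ (100 nM) was measured by LC-MS without peptide present. Compounds from 50 mM DMSO stocks were serially diluted 3-fold and 1000 nl transferred to plates in TRIS buffer (10 mM, pH 8.0), 50 μl per well. Samples were desalted on a BEH-C4 column and analysed on a Xevo G2-XS Q-Tof at several time points.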

14-3-3σ/C-RAF [4] = target: T3, 14-3-3σ/C-RAF (Homo sapiens, UniProt P31947); test: Mass spectrometry dose response, compound binding to 14-3-3σ in the presence of C-RAF phosphopeptide; conditions: 100 nM compound, 100 nM 14-3-3σ, C-RAF peptide 18 µM
T3 construct: The 14-3-3 σ isoform (full-length for mass spectrometry and fluorescence anisotropy assays, ΔC for crystallography); made in house; host or cells: E. coli Rosetta 2(DE3)pLysS, pPROEX HTb vector
T3 sequence (P31947 1-248): T2 sequence (P31947 1-248)
How it was run: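 Covalent binding of compounds to the native Cys38 of 14-3-3σ was monitored by LC-MS on a Waters Acquity UPLC/Xevo G2-XS Q-Tof, with samples desalted on a BEH-C4 column. Full-length wild type 14-3-3σ (100 nM) with C-RAF peptide in TRIS buffer (10 mM, pH 8.0) was incubated with compound dose series at room temperature.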

14-3-3σ/C-RAF [5] = target: T3, 14-3-3σ/C-RAF; test: Fluorescence anisotropy compound titration, FAM-labeled C-RAF peptide; type: binding; conditions: for stabilization of 14-3-3σ/C-RAF (in words): MS and FA assays, abstract: up to 150 μM compound
14-3-3σ/ERα [6] = target: T1, 14-3-3σ/ERα; test: Fluorescence anisotropy protein titration, FAM-labeled ERα peptide; type: binding; conditions: 10 nM FAM-ERα peptide; for X Fold stabilization (100 µM compound) of 14-3-3σ/ERα: versus DMSO reference; for Kd: 100 µM compound, overnight incubation
Protocol: To evaluate compound-mediated stabilization of the 14-3-3σ/ERα complex directly, FA protein titrations were performed at a saturating concentration of compound. FA protein titrations allowed the quantification of the cooperative effect by comparing the apparent dissociation constants (appKD) of the binary and ternary complexes. 14-3-3σ was titrated into 10 nM FAM-labeled ERα peptide in the presence of DMSO or 100 μM of the compounds (Table S4). […]
diluted in buffer (10 mM HEPES, pH 7.5, 150 mM NaCl, 0.1% Tween20, 1 mg/mL Bovine Serum Albumin (BSA; Sigma-Aldrich). Final DMSO in the assay was always 1%. […]
Protein titrations were made by titrating 14-3-3σ in a 2-fold dilution series (starting at 300 µM) to a mix of fluorescein-labeled peptide (10 nM) and DMSO or compound (100 µM). Fluorescence anisotropy measurements were performed after overnight incubation at room temperature. […]
Wells containing only FAM-peptide were used to set as G-factor at 35 mP. Data reported are at endpoint. EC50 and apparent Kd values were obtained from fitting the data with a four-parameter logistic model (4PL) in GraphPad Prism 7 for Windows. Data was obtained and averaged based on either three (compound titrations) or two (protein titrations) independent experiments.

14-3-3σ/C-RAF [7] = target: T3, 14-3-3σ/C-RAF; test: Fluorescence anisotropy compound titration, FAM-labeled C-RAF peptide; type: binding; conditions: 10 nM C-RAF-FAM labeled peptide, 5 µM 14-3-3σ, overnight incubation; read-out: EC50 value C-RAF (FA compound titration)
How it was run: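 A fluorescence anisotropy compound titration measured how compounds stabilize binding of 14-3-3σ to a fluorescein-labeled C-RAF peptide. Compounds were diluted 2-fold, from 500 or 1000 µM, into 10 nM labeled peptide with 5 µM 14-3-3σ, roughly its EC25, in HEPES buffer with 1% DMSO. Plates were read after overnight incubation at room temperature. EC50 values came from 4PL fits over three independent experiments.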

[8] = EC50 value ERα (FA compound titration)
[9] = read-out: EC50 value ERα (FA compound titration)

Row | SMILES | EC50 (14-3-3σ/ERα [1]; [8]) | Percentage (%) bound of compound to 14-3-3σ, ERα 1h (14-3-3σ/ERα [3]) | Percentage (%) bound of compound to 14-3-3σ, ERα 8h (14-3-3σ/ERα [3]) | Percentage (%) bound of compound to 14-3-3σ, ERα 16h (14-3-3σ/ERα [3]) | Percentage (%) bound of compound to 14-3-3σ, ERα 24h (14-3-3σ/ERα [3]) | Percentage (%) bound of compound to 14-3-3σ, APO 1h (14-3-3σ) | Percentage (%) bound of compound to 14-3-3σ, APO 8h (14-3-3σ) | Percentage (%) bound of compound to 14-3-3σ, APO 16h (14-3-3σ) | Percentage (%) bound of compound to 14-3-3σ, APO 24h (14-3-3σ) | Percentage (%) bound of compound to 14-3-3σ, CRAF 1h (14-3-3σ/C-RAF [4]) | Percentage (%) bound of compound to 14-3-3σ, CRAF 8h (14-3-3σ/C-RAF [4]) | Percentage (%) bound of compound to 14-3-3σ, CRAF 24h (14-3-3σ/C-RAF [4]; 24h) | Percentage (%) bound of compound to 14-3-3σ, CRAF 24h (14-3-3σ/C-RAF [4]; head prints 24h) | EC50 (14-3-3σ/ERα [1]; [9]) | stabilization of 14-3-3σ/C-RAF (in words) (14-3-3σ/C-RAF [5]) | X Fold stabilization (100 µM compound) of 14-3-3σ/ERα (14-3-3σ/ERα [6]) | Kd (14-3-3σ/ERα [6]) | EC50 (14-3-3σ/C-RAF [7]) | also measured
1 | C=CS(=O)(=O)NCC1CCN(C(=O)C2(Nc3ccc(Cl)cc3)CCOCC2)CC1 [compound 155] | > 150 µM | 0.6% | 1.5% | 5.9% | 14.1% | 0% | 0.7% | 4.6% | 31.4% | 0% | 0% | 1.0% | 0% |  |  |  |  |  | activity in MS and FA assays (in words) (14-3-3σ/ERα [2]): inactive
2 | O=C(CCl)NCC1CCN(C(=O)C2(Nc3ccc(Cl)cc3)CCCC2)CC1 [compound 118] | 5 ± 0.4 µM | 11.2% | 24.1% | 60.1% | 96.6% | 0% | 0% | 0.8% | 13.0% | 2.9% | 3.4% | 23.7% | 11.5% |  |  |  |  |  | selectivity for ERα (over C-RAF, FA EC50) (14-3-3σ/ERα [1]; FA compound titrations): greater than 30 fold; EC50 (14-3-3σ/C-RAF [5]; EC50 value C-RAF (FA compound titration), 10 nM C-RAF-FAM labeled peptide, 5 µM 14-3-3σ, overnight incubation): > 150 µM
3 | O=C(CCl)NCC1CCN(C(=O)C2(Nc3ccc(Cl)cc3)CCNCC2)CC1 [compound 131] |  | 54.4% | 82.2% | 94.0% | 98.3% | 1.4% | 2.2% | 5.8% | 14.1% | 2.0% | 2.4% | 12.5% | 4.6% | 2 ± 0.3 µM | no stabilization | 30 fold | 0.049 µM | > 150 µM | 
4 | NC1CCC(Nc2ccc(Cl)cc2)(C(=O)N2CCC(CNC(=O)CCl)CC2)CC1 (centres unmarked) [compound 137] |  | 36.3% | 60.4% | 90.0% | 96.4% | 1.4% | 1.9% | 3.2% | 9.3% | 1.7% | 3.6% | 10.4% | 6.6% | 8 ± 1 µM | no stabilization |  |  | > 150 µM | 
5 | O=C(CCl)NC1CC2(CCN(C(=O)C3(Nc4ccc(Cl)cc4)CCOCC3)CC2)C1 [compound 166] |  | 32.6% | 60.3% | 87.6% | 94.0% | 1.2% | 3.2% | 5.5% | 13.3% | 1.8% | 4.0% | 23.3% | 11.8% | 6 ± 0.3 µM |  | 13 fold | 0.16 µM | 77 ± 5 µM | 
